The text below walks through data of US9775902B2, “Compounds and methods for treatment of stroke” (FIBROGEN, INC, priority 2006, dated 2017).

One assay has as its system erythropoietin (EPO). In words: EPO expression in Hep3B cells (QUANTIKINE immunoassay of conditioned media). The assay is classed as cell-based, Human. As to conditions: for Fold Increase Over Control: EPO, vs 1% DMSO control; for EPO: conditioned media after overnight incubation with compound. Summed up: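 Confluent Hep3B cells were switched to OPTI-MEM for about 24 h (20% O2, 5% CO2, 37 °C), then treated overnight with compound or 1% DMSO vehicle. EPO secreted into the conditioned medium was measured by QUANTIKINE immunoassay.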

A further assay concerns erythropoietin. In words: Plasma EPO in mice after intravenous injection. The assay is classed as in vivo, Swiss Webster mice. The following applies: mouse plasma, 20 mg/kg i.v., four hours after injection; for fold induction at 20 mg/kg: iv, 4 h, read-out: EPO Fold Increase; for EPO: mouse EPO ELISA kit (**). Summed up: (§1)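 Male Swiss Webster mice (29-34 g) received 20 mg/kg compound or vehicle by tail-vein injection in 5% dextrose with equimolar NaOH or meglumine. Plasma was collected 4 h later, and EPO and VEGF were measured by ELISA.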
(ELISA stands for enzyme-linked immunosorbent assay.)

A further assay relates to VEGF. In words: Plasma VEGF in mice after intravenous injection. The assay is classed as in vivo, Swiss Webster mice. The following applies: mouse plasma, 20 mg/kg i.v., four hours after injection; for fold induction at 20 mg/kg: iv, 4 h, read-out: VEGF Fold Increase. Summed up: as §1
For assay [1], the system named is C57BL/6 mice, permanent occlusion of the MCA. In words: Permanent middle cerebral artery occlusion (pMCAO) in C57BL/6 mice: infarct volume and edema. It counts as in vivo. As to conditions: for Percent Reduction in Edema / inhibition in vivo at up to 20 mg/kg: C57BL/6 mice pMCAO, 20-60 mg/kg i.v., compound given 0 hr; for inhibition in vivo at up to 20 mg/kg / inhibition in vivo at 60 mg/kg: Mus musculus, iv, read-out: Percent Reduction in Infarct Volume; for inhibition in vivo at up to 20 mg/kg: 24 h, 24 hours after MCA occlusion; for inhibition in vivo at 60 mg/kg: C57BL/6 pMCAO. Summed up: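 Male mice (25-35 g) under avertin anaesthesia had the distal MCA coagulated through a craniotomy; compound given as single i.v. bolus (20-60 mg/kg, 6 ml/kg in 5% dextrose with equimolar meglumine or NaOH) before or up to 8 h after occlusion.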

Like-named read-outs stand apart in the source and are kept apart here.

As for `Cc1cccc(C)c1Oc1ccc2c(C#N)nc(C(=O)NCC(=O)O)c(O)c2c1` [Compound AL, {[1-Cyano-6-(2,6-dimethyl-phenoxy)-4-hydroxy-isoquinoline-3-carbonyl]-amino}-acetic acid], in the assay on erythropoietin (EPO), the “Fold Increase Over Control” value stood at 13.9 and the EPO is 74.8 mIU/ml. In the assay with erythropoietin, the fold induction at 20 mg/kg came to 188 and the EPO turned out to be 22514 pg/mL. In the assay with VEGF, the fold induction at 20 mg/kg is 2.06 and the VEGF is 130 pg/mL. Further, in assay [1], the “Percent Reduction in Edema” value came out at 73% and the inhibition in vivo at up to 20 mg/kg was found to be 43%.

Consider `COc1ccc(Oc2ccc3c(O)c(C(=O)NCC(=O)O)ncc3c2)cc1` [Compound F, {[4-Hydroxy-7-(4-methoxy-phenoxy)-isoquinoline-3-carbonyl]-amino}-acetic acid], for which the “Fold Increase Over Control” value with erythropoietin (EPO) came to 3.0. Moreover, the results for the EPO in the assay on erythropoietin (EPO) and in the assay on erythropoietin were 369.4 mIU/ml and 2283 pg/mL, respectively. The fold induction at 20 mg/kg in the assay on erythropoietin worked out at 254; in the assay on VEGF, 2.21. In the assay with VEGF, this molecule returned a VEGF of 64 pg/mL. Moreover, the “Percent Reduction in Edema” value in assay [1] came out at 47%. Moreover, the inhibition in vivo at 60 mg/kg in assay [1] (0 h, 60 mg/kg single i.v. bolus (Meglumine vehicle), 0 hr after MCA occlusion) was found to be 43%; in assay [1] (0 h, 60 mg/kg single i.v. bolus (NaOH vehicle), 0 hr after MCA occlusion), 50%; in assay [1] (1 h, 60 mg/kg single i.v. bolus (NaOH vehicle), 1 hr after MCA occlusion) it was 62%; in assay [1] (3 h, 60 mg/kg single i.v. bolus (NaOH vehicle), 3 hr after MCA occlusion), 53%; in assay [1] (4 h, 60 mg/kg single i.v. bolus (Meglumine vehicle), 4 hr after MCA occlusion), 36%; in assay [1] (5 h, 60 mg/kg single i.v. bolus (NaOH vehicle), 5 hr after MCA occlusion), 55%. Besides, the inhibition in vivo at 60 mg/kg in assay [1] (6 h, 60 mg/kg single i.v. bolus (Meglumine vehicle), 6 hr after MCA occlusion) was found to be 15%; in assay [1] (8 h, 60 mg/kg single i.v. bolus (Meglumine vehicle), 8 hr after MCA occlusion), 8%. Besides, in assay [1], the inhibition in vivo at up to 20 mg/kg is 68%.

Consider `N#Cc1nc(C(=O)NCC(=O)O)c(O)c2c(Oc3ccc(F)cc3)cccc12` [Compound AS, {[1-Cyano-5-(4-fluoro-phenoxy)-4-hydroxy-isoquinoline-3-carbonyl]-amino}-acetic acid], for which, in the assay on erythropoietin (EPO), the “Fold Increase Over Control” value was 10.7 and the EPO is on record as 40.5 mIU/ml. In the assay with erythropoietin, the fold induction at 20 mg/kg is 102 and the EPO worked out at 49305 pg/mL. Moreover, in the assay with VEGF, the fold induction at 20 mg/kg worked out at 0.57 and the VEGF stood at 20 pg/mL. Further, in assay [1], the “Percent Reduction in Edema” value is recorded as 54% and the inhibition in vivo at up to 20 mg/kg is 50%.
